Test results taken from ChEMBL document CHEMBL1142058, “Amorphane sesquiterpenes from a marine Streptomyces sp” (J Nat Prod, 2007).
Calls of active or inactive are those of the source.

Key:
Assay type in all cases: functional, organism-based
Candida albicans = experiment: Antifungal activity against Candida albicans at 80 ug/disk
Chlorella sorokiniana = experiment: Antimicrobial activity against Chlorella sorokiniana at 80 ug/disk
Staphylococcus aureus = experiment: Antibacterial activity against Staphylococcus aureus at 80 ug/disk
Escherichia coli = experiment: Antibacterial activity against Escherichia coli at 80 ug/disk
Artemia = experiment: Activity against brine shrimp at 10 ug/mL
Chlorella vulgaris = experiment: Antimicrobial activity against Chlorella vulgaris at 80 ug/disk
Desmodesmus subspicatus = experiment: Antimicrobial activity against Scenedesmus subspicatus at 80 ug/disk
Bacillus subtilis = experiment: Antibacterial activity against Bacillus subtilis at 80 ug/disk
[1] = test system: Streptomyces viridochromogenes; experiment: Antibacterial activity against Streptomyces viridochromogenes Tu 57 at 80 ug/disk
Rhizomucor miehei = experiment: Antifungal activity against Mucor miehei at 80 ug/disk

Measured: Activity

CC1=C[C@H]2[C@@H](C(C)(C)O)CC[C@@](C)(O)[C@H]2CC1
inactive: all assays above

CC1=C[C@H]2[C@@H](C(C)C)CC[C@@](C)(O)[C@H]2CC1=O
inactive: all assays above

C[C@H]1C(=O)C[C@H]2[C@@H](C1O)[C@@H](C(C)(C)O)CC[C@@]2(C)O (stereo not given in full)
inactive: all assays above

CC(C)[C@H]1CC[C@@](C)(O)[C@H]2CC(=O)C(CO)=C[C@@H]12
inactive: all assays above
